From patent publication US9023789B2, “Amylin analogs and pharmaceutical compositions thereof” (Novo Nordisk A/S, priority 2012, dated 2015) come the findings set out here.

In brackets after ≈: the same amount, converted by molar mass. Where two headings read alike, the source gives them in different places. Numbered stars: 1 amine (or outer) side, 2 acyl side, 3 side chain; on linkers, the order of the positions; unused ones are H or OH. Bridge positions count the residues as written; N and C are the ends. Side chains are listed from the residue outwards. Peptide text beside a SMILES is read from it. * marks the point of attachment. C20 diacid = O=C(O)CCCCCCCCCCCCCCCCCCC(=O)*; γGlu = O=C(O)[C@H](CCC(=O)[*:2])N[*:1]

Data set [1] in a line: ASSAY (IV) determination of solubility. The class given is physicochemical. The method, boiled down: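 Solubility measured by UPLC of supernatant after centrifugation, following 18 h at room temperature. Peptide ([…] in water) was diluted 1:1 into 100 mM glycylglycine (pH 3.0, 4.0, 5.0) or bistrispropane (pH 6.0-8.0).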
Data set [2] deals with Sprague Dawley (SD) rats. As to the kind of experiment: ASSAY (I) efficacy testing on appetite (food intake) using an ad libitum fed rat model. The settings on record: rat. It counts as in vivo. In a few lines: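 Individual food consumption was logged each hour up to 7 h and again at 24 h, occasionally 48 h, with Grubbs-test outliers removed. Each 200–250 g Sprague Dawley rat, free-feeding in its home cage under reversed lighting, received a single ip, po or sc dose of 0.01–3 mg/kg at lights-off, alongside a vehicle group.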

The nature of data set [3]: ASSAY (III) ThT fibrillation assay for physical stability. It counts as physicochemical. In a few lines:
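Physical stability scored by ThT fluorescence (444 nm excitation, 485 nm emission) tracked every 20 min during 37 °C incubation with 960 rpm shaking, ThT at 1 μM final. Values are replicate means with SD at chosen times; HPLC against pramlintide standard gives initial and post-assay soluble concentrations.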

The mark [4] stands for this setting: bistrispropane buffer, pH 6.5, read-out: Solubility pH 6.5 Concentration.
The mark [5] stands for this setting: bistrispropane buffer, pH 7.5, read-out: Solubility pH 7.5 Concentration.
[6] abbreviates: bistrispropane buffer, pH 6.0, read-out: Solubility pH 6.0 Concentration.
Setting [7] is: bistrispropane buffer, pH 7.0, read-out: Solubility pH 7.0 Concentration.
The mark [8] stands for this setting: bistrispropane buffer, pH 8.0, read-out: Solubility pH 8.0 Concentration.
[9] abbreviates: glycylglycine buffer, pH 3.0, read-out: Solubility pH 3.0 Concentration.
[10] abbreviates: glycylglycine buffer, pH 4.0, read-out: Solubility pH 4.0 Concentration.
[11] abbreviates: glycylglycine buffer, pH 5.0, read-out: Solubility pH 5.0 Concentration.

`CC[C@H](C)[C@H](NC(=O)[C@H](C)NC(=O)CNC(=O)[C@H](Cc1ccccc1)NC(=O)[C@H](CC(N)=O)NC(=O)[C@@H]1CCCN1C(=O)[C@H](CO)NC(=O)[C@H](CO)NC(=O)[C@H](Cc1c[nH]cn1)NC(=O)[C@H](CCCNC(=N)N)NC(=O)[C@H](CC(C)C)NC(=O)[C@H](Cc1ccccc1)NC(=O)[C@H](CCC(=O)O)NC(=O)[C@H](C)NC(=O)[C@H](CC(C)C)NC(=O)[C@H](CCCNC(=N)N)NC(=O)[C@H](CCC(N)=O)NC(=O)[C@@H](NC(=O)[C@H](C)NC(=O)[C@@H]1CSSC[C@H](NC(=O)[C@@H](N)CCCCNC(=O)CC[C@H](NC(=O)CCCCCCCCCCCCCCCCCCC(=O)O)C(=O)O)C(=O)N[C@@H](CC(N)=O)C(=O)N[C@@H]([C@@H](C)O)C(=O)N[C@@H](C)C(=O)N[C@@H]([C@@H](C)O)C(=O)N1)[C@@H](C)O)C(=O)N1CCC[C@H]1C(=O)N[C@@H](CO)C(=O)N[C@@H](CO)C(=O)N[C@H](C(=O)N[C@@H](CC(N)=O)C(=O)N[C@H](C(=O)NCC(=O)N[C@@H](CO)C(=O)N[C@@H](CCCNC(=N)N)C(=O)N[C@H](C(=O)N[C@@H](Cc1ccc(O)cc1)C(N)=O)[C@@H](C)O)C(C)C)[C@@H](C)O` [Example 51] (H-K([γGlu-C20 diacid])CNTATCATQRLAEFLRHSSPNFGAIPSSTNVGSRTY-NH2; disulfide 2-7 (inferred); N-terminus assumed): the solubility at 18 h in data set [1] (setting [4]) was not below 200 µM; in data set [1] (setting [5]) it was 183 µM (≈ 812 µg/mL); in data set [1] (setting [6]), not below 200 µM; in data set [1] (setting [7]), not below 200 µM; in data set [1] (setting [8]) it was 109 µM (≈ 484 µg/mL); in data set [1] (setting [9]) it was not below 200 µM. Further, the solubility at 18 h in data set [1] (setting [10]) and in data set [1] (setting [11]) was not below 200 µM in each case. Also, the “Food intake reduction 0-24 h 30 nmol/kg (%)” value in data set [2] (0-24 h) came to 52%. Further, the “Food intake reduction 24-48 h 30 nmol/kg (%)” value in data set [2] (24-48 h) was determined as 30%. The “ThT pH 4.0 lag time (h)” value in data set [3] worked out at 7 h.

For the molecule `CC[C@H](C)[C@H](NC(=O)[C@H](C)NC(=O)CNC(=O)[C@H](Cc1ccccc1)NC(=O)[C@H](CC(N)=O)NC(=O)[C@@H]1CCCN1C(=O)[C@H](CO)NC(=O)[C@H](CO)NC(=O)[C@H](Cc1c[nH]cn1)NC(=O)[C@H](CCCNC(=N)N)NC(=O)[C@H](CC(C)C)NC(=O)[C@H](Cc1ccccc1)NC(=O)[C@H](CCC(=O)O)NC(=O)[C@H](C)NC(=O)[C@H](CC(C)C)NC(=O)[C@H](CCCNC(=N)N)NC(=O)[C@H](CCC(N)=O)NC(=O)[C@@H](NC(=O)[C@H](C)NC(=O)[C@@H]1CSSC[C@H](NC(=O)[C@@H](N)CCCCNC(=O)CC[C@H](NC(=O)CCCCCCCCCCCCCCCCCCC(=O)O)C(=O)O)C(=O)N[C@@H](CC(N)=O)C(=O)N[C@@H]([C@@H](C)O)C(=O)N[C@@H](C)C(=O)N[C@@H]([C@@H](C)O)C(=O)N1)[C@@H](C)O)C(=O)N1CCC[C@H]1C(=O)N[C@@H](CO)C(=O)N[C@@H](CO)C(=O)N[C@H](C(=O)N[C@@H](CC(N)=O)C(=O)N[C@H](C(=O)NCC(=O)N1CCC[C@H]1C(=O)N[C@@H](CCC(=O)O)C(=O)N[C@H](C(=O)N[C@@H](Cc1ccc(O)cc1)C(N)=O)[C@@H](C)O)C(C)C)[C@@H](C)O` [Example 109] (H-K([γGlu-C20 diacid])CNTATCATQRLAEFLRHSSPNFGAIPSSTNVGPETY-NH2; disulfide 2-7 (inferred); N-terminus assumed), the solubility at 18 h in data set [1] (setting [4]), in data set [1] (setting [5]), in data set [1] (setting [6]), in data set [1] (setting [7]), in data set [1] (setting [8]) and in data set [1] (setting [9]) was not below 200 µM throughout. For the same molecule, the solubility at 18 h in data set [1] (setting [10]) and in data set [1] (setting [11]) was not below 200 µM throughout. Moreover, the “Food intake reduction 0-24 h 3 nmol/kg (%)” value in data set [2] (3 nmol/kg, 0-24 h) is listed as 57%. In addition, the “Food intake reduction 24-48 h 3 nmol/kg (%)” value in data set [2] (3 nmol/kg, 24-48 h) was 50%. In addition, in data set [2] (0-24 h), the “Food intake reduction 0-24 h 30 nmol/kg (%)” value is on record as 89%. In data set [2] (24-48 h), the “Food intake reduction 24-48 h 30 nmol/kg (%)” value is 91%. In addition, the “ThT pH 4.0 lag time (h)” value in data set [3] is 35 h.
